“Also recorded” adds a separate entry of the source.
What was measured:
[1] = tested on: patients with symptomatic non-obstructive HCM (nHCM) or HCM with MVO; assay: Phase 2 trial (Example 2): exploratory responder analysis in subgroups; assay type: in vivo, human
Experimental: An exploratory responder analysis was performed to consider treatment effect in certain subgroups of patients.

[2] = Phase 1 plasma pharmacokinetics, single-ascending dose (SAD) cohorts; assay type: in vivo, human; details: for AUC24 / Cmax / AUCinf / CL/F / t1/2 / Tmax: SAD; for CL/F / t1/2: mean ± SD; for Tmax: median (range)
Experimental: Single-ascending dose (SAD) cohorts. The SAD portion of the study used a randomized, double-blind, placebo-controlled, sequential, escalating-dose design, in which participants received single-ascending oral doses of the study drug. Seven cohorts were dosed in sequence (FIG. 2).
Pharmacokinetic analyses. For all study groups, blood samples for PK assessment were obtained pre-dose, up to 12 times daily on day 1, and then at regular intervals throughout the study. Blood samples were collected according to the following schedule: SAD Cohorts: Day 1: pre-dose and 0.25, 0.5, 1, 1.5, 2, 2.5, 3, 4, 6, 8, 12, 16, 24, 36, 48, 72, 96, and 216 h post dose. MAD Cohorts (14-day Dosing): Day 1: pre-dose and 0.25, 0.5, 1, 1.5, 2, 2.5, 3, 4, 6, 8, and 12 h post dose; Days 2, 4, 5, 6, and 9: pre-dose (corresponding to trough samples following dosing on days 1, 3, 4, 5, and 8) and 1.5 h post dose; Days 3, 7, 8, 10, 11, 12, and 13: pre-dose (corresponding to trough samples following dosing on days 2, 6, 7, 9, 10, 11, and 12); Day 14: pre-dose and 0.25, 0.5, 1.5, 2, 2.5, 3, 4, 6, 8, 12, 16, 24, 36, 48, 72, and 168 h post dose. MAD Cohort (17-Day Dosing): Day 1: pre-dose and 0.25, 0.5, 1, 1.5, 2, 2.5, 3, 4, 6, 8, and 12 h post dose; Days 2, 4, 5, 6, and 9: pre-dose (corresponding to trough samples following dosing on days 1, 3, 4, 5, and 8) and 1.5 h post dose; Days 3, 7, 8, 10, 11, 12, 13, 14, 15, and 16: pre-dose (corresponding to trough samples following dosing on days 2, 6, 7, 9, 10, 11, and 12); Day 17: pre-dose and 0.25, 0.5, 1.5, 2, 2.5, 3, 5, 7, 9, 12, 24, 36, 48, 72, and 168 h post dose. CYPD6-PM Cohort: Day 1: pre-dose and 0.25, 0.5, 1, 1.5, 2, 2.5, 3, 4, 6, 8, 12, 16, 24, 36, 48, 72, 96, 216, 312, and 552 h post dose. Food-Effect Cohort: Day 1: pre-dose and 0.25, 0.5, 1, 1.5, 2, 2.5, 3, 4, 6, 8, 12, 16, 24, 36, 48, 72, 96, 144, and 216 h post dose. Standard non-compartmental methods were used to calculate PK parameters using Phoenix® WinNonlin® Version 7.0; actual sample collection times were utilized.
Statistical Analysis. The sample size chosen for this study was based upon precedent set by other first-in-human PK studies of similar nature and was not based on power calculations. […] All participants who received ≥1 dose of the study drug and had ≥1 evaluable PK plasma profile were included in the PK analysis set. […]

[3] = single oral 1 mg, geometric mean (geometric CV %), n = 6
[4] = single oral 3 mg, geometric mean (geometric CV %), n = 6
[5] = single oral 25 mg, geometric mean (geometric CV %), n = 6
[6] = single oral 40 mg, geometric mean (geometric CV %), n = 6
[7] = single oral 50 mg, geometric mean (geometric CV %), n = 11

In the case of `CCc1nc(-c2ccc3c(c2)CC[C@H]3NC(=O)c2cnn(C)c2)no1` [aficamten, (R)—N-(5-(5-ethyl-1,2,4-oxadiazol-3-yl)-2,3-dihydro-1H-inden-1-yl)-1-methyl-1H-pyrazole-4-carboxamide], the “responder analysis: treatment effect in other subgroups” value ([1]; beta-blockers or not, elevated TnI or E/e′ or not, genetic or family history of HCM or not) was “Consistent treatment effects”, the “responder analysis: treatment effect by BMI” value ([1]; patients with BMI ≥30 compared to BMI <30) was “potential differential treatment effect” and the “maximum time to maximum observed concentration across all participants” value ([2]; SAD cohorts) was 4.0 h. For the same molecule, the AUC24 [2, 3] was 50 (20) ng · h/ml, the Cmax [2, 3] was 5.8 (38.4) ng/ml and the AUCinf ([2]; single oral 3 mg, geometric mean (geometric CV %), n = 5) was 823 (61) ng · h/ml. The AUC24 [2, 4] was 174 (27) ng · h/ml, the Cmax [2, 4] was 26.1 (82.4) ng/ml and the CL/F ([2]; single oral 3 mg, n = 5) was 4.2 ± 3.1 L/h. The t1/2 ([2]; single oral 3 mg, n = 5) was 75.1 ± 21.8 h, the Tmax ([2]; single oral 3 mg, n = 6) was 1.3 (0.5, 2.6) h and the AUC24 ([2]; single oral 10 mg (extensive metabolizers), geometric mean (geometric CV %), n = 6) was 679 ng·h/mL. The t1/2 ([2]; single oral 10 mg (extensive metabolizers), n = 4) was 84.7 ± 17.7 h, the AUCinf ([2]; single oral 10 mg, geometric mean (geometric CV %), n = 4) was 3,434 (24) ng · h/ml and the Cmax ([2]; single oral 10 mg, geometric mean (geometric CV %), n = 6) was 70.5 (69.0) ng/ml. For the same molecule, the CL/F ([2]; single oral 10 mg, n = 4) was 3.0 ± 0.7 L/h, the Tmax ([2]; single oral 10 mg, n = 6) was 2.8 (0.5, 3.0) h and the AUC24 [2, 5] was 1,493 (15) ng · h/ml. The AUCinf [2, 5] was 7,113 (15) ng · h/ml, the Cmax [2, 5] was 192.6 (23.3) ng/ml and the CL/F ([2]; single oral 25 mg, n = 6) was 3.6 ± 0.5 L/h. For the same molecule, the Tmax ([2]; single oral 25 mg, n = 6) was 1.8 (0.5, 4.0) h, the AUCinf ([2]; single oral 40 mg, geometric mean (geometric CV %), n = 5) was 11,860 (20) ng · h/ml and the AUC24 [2, 6] was 2,532 (13) ng · h/ml. The Cmax [2, 6] was 383.2 (67.9) ng/ml, the t1/2 ([2]; single oral 40 mg, n = 4) was 79.2 ± 18.5 h and the CL/F ([2]; single oral 40 mg, n = 5) was 3.4 ± 0.6 L/h. For the same molecule, the AUCinf ([2]; single oral 50 mg, geometric mean (geometric CV %), n = 9) was 13,740 (35) ng · h/ml, the AUC24 [2, 7] was 2,833 (26) ng · h/ml and the Cmax [2, 7] was 359.4 (38.9) ng/ml. The CL/F ([2]; single oral 50 mg, n = 9) was 3.8 ± 1.1 L/h, the t1/2 ([2]; single oral 50 mg, n = 9) was 80.4 ± 14.9 h and the Tmax ([2]; single oral 50 mg, n = 11) was 1.0 (0.5, 2.5) h. For the same molecule, the Tmax ([2]; single oral 75 mg, n = 1) was 0.5 (0.5, 0.5) h, the AUC24 ([2]; single oral 75 mg, n = 1) was 4,556 (—) ng · h/ml and the Cmax ([2]; single oral 75 mg, n = 1) was 1,220 (—) ng/ml. For the same molecule, the “dose proportionality of Cmax and exposure (AUC24)” value ([2]; single oral doses between 1 mg and 50 mg) was “dose-proportional; also recorded: linear kinetics”.
